The values that follow come from patent US11117898B2, “Pyrazolo-heteroaryl derivative, preparation method and medical use thereof” (Jiangsu Hengrui Medicine Co., Ltd., priority 2016, dated 2021).

One data set has as its target human TLR7 (Homo sapiens (Human), UniProt Q9NYK1). Nature of the data set: Agonistic activity on human TLR7 in HEK-Blue hTLR7 stably transfected cells. In kind it is cell-based. Particulars: for EC50: OD 620 nm. As to the method:
The activation effect of the compounds of the present invention on the hTLR7 protein expressed by the HEK-Blue™ hTLR7 stably transfected cells was determined by the following experimental method:
A bag of HEK-Blue detection dry powder was dissolved in 50 ml of water free of endotoxin, and the solution was then placed in an incubator at 37° C. for 10 minutes followed by sterile filtration to prepare a HEK-Blue detection medium. The compound was firstly formulated into a 20 mM stock solution, then diluted with pure DMSO to a maximum concentration of 6×10^6 nM, and a total of 10 points were obtained by a 3-fold gradient dilution.
The above formulated compound was firstly diluted 20-fold with the medium, then 20 μl of the diluted compound were added to each well. The supernate was removed from the HEK-Blue™ hTLR7 cells, to which 2-5 ml of pre-warmed PBS were then added. The cells were placed in an incubator for 1-2 minutes, gently pipetted, and counted by trypan blue staining. The cells were re-suspended in the HEK-Blue detection medium to adjust the concentration to 2.2×10^5 cells/ml. 180 μl of cells were added to the above 96-well plate already added with 20 μl of the compounds, and incubated at 37° C. for 6-16 hours.
The activation effect of the compounds of the present invention on human TLR7 can be determined by the above test, and the obtained EC50 values are shown in Table 1.

The target of another data set is human TLR8 (Homo sapiens (Human), UniProt Q9NR97). Nature of the data set: Agonistic activity on human TLR8 in HEK-Blue hTLR8 stably transfected cells. In kind it is cell-based. The settings on record: for EC50: OD 620 nm. On the procedure: The activation effect of the compounds of the present invention on the hTLR8 protein expressed by the HEK-Blue™ hTLR8 stably transfected cells was determined by the following experimental method:
A bag of HEK-Blue detection dry powder was dissolved in 50 ml of water free of endotoxin, and the solution was then placed in an incubator at 37° C. for 10 minutes followed by sterile filtration to prepare a HEK-Blue detection medium. The compound was firstly formulated into a 20 mM stock solution, then diluted with pure DMSO to a maximum concentration of 6×10^6 nM, and a total of 10 points were obtained by a 3-fold gradient dilution. The compound was firstly diluted 20-fold with the medium, then 20 μl of the diluted compound were added to each well.
The supernate was removed from the HEK-Blue™ hTLR8 cells, to which 2-5 ml of pre-warmed PBS were then added. The cells were placed in an incubator for 1-2 minutes, gently pipetted, and counted by trypan blue staining. The cells were re-suspended in the HEK-Blue detection medium to adjust the concentration to 2.2×10^5 cells/ml. 180 μl of cells were added to the above 96-well plate already added with 20 μl of the compounds, and incubated at 37° C. for 6-16 hours.
The activation effect of the compounds of the present invention on human TLR8 can be determined by the above test, and the obtained EC50 values are shown in Table 2.

In a further data set the test system is PBMC. As to the kind of experiment: Stimulation of the secretion of IFN-α from peripheral blood mononuclear cells (PBMC). In kind it is cell-based, human. Particulars: minimal effective concentration: lowest concentration giving cytokine level at least 3 times the minimum detection limit; 24 hours incubation. On the procedure:
The ability of the compounds of the present invention to stimulate the secretion of IFN-α from PBMC was determined by the following experimental method:
The compound was diluted with pure DMSO to a maximum concentration of 5 mM, and a total of 9 points were obtained by a 4-fold gradient dilution. 4 μl of the compound were then added to 196 μl of RMPI 1640 medium containing 10% FBS and mixed well. 50 μl of the mixture were taken from each well and added to a new 96-well plate.
All reagents were equilibrated to room temperature. 60 ml of blood and PBS+2% FBS were added to a 250 ml culture flask, gently pipetted, mixed well and diluted. 15 ml of lymphocyte separation solution Ficoll-Paque PREMIUM and then 30 ml of diluted blood were added to a 50 ml PBMC centrifuge tube SepMate™-50. The mixture was centrifuged at 1200 g for 10 minutes at room temperature. The supernatant was taken and then centrifuged at 300 g for 8 minutes. The cells were re-suspended in the RMPI 1640 medium containing 10% FBS and counted, and the number of PBMCs was adjusted to 3.33×10^6 cells/ml. 150 μl of the cell solution were added to the plate added with the compound, and incubated in an incubator at 37° C., in 5.0% CO2 for 24 hours.
The cell culture plate was placed in a centrifuge, and centrifuged at 1200 rpm for 10 minutes at room temperature. 150 μl of the supernatant were taken from each well. The reagents in the human IFN-α kit were first equilibrated to normal temperature. The anti-IFN-α-Eu^3+-Cryptate conjugate and the anti-IFN-α-d2-conjugate were formulated in the dark according to the kit instructions, and both of them were mixed well with the conjugate buffer at a ratio of 1:40. 16 μl of the supernatant obtained by centrifugation were then added to each well. 2 μl of anti-IFN-α-Eu^3+-Cryptate conjugate and anti-IFN-α-d2-conjugate formulated just now were then added to each well. The plate was shaken and mixed well, and incubated in the dark at room temperature for 3 hours.
The PHERAStar was read in the HTRF mode. The lowest compound concentration that stimulated cytokine levels of at least 3 times higher than the minimum detection limit was defined as the minimal effective concentration (MEC) value of the compound in the cytokine stimulation test.
The ability of the compounds of the present invention to stimulate the secretion of IFN-α from PBMC was determined by the above test, and the obtained MEC values are shown in Table 3.

The next data set concerns the target CYP2D6 (Homo sapiens (Human), UniProt P10635). As to the kind of experiment: Inhibition of the enzyme activity of CYP2D6 in human liver microsomes. In kind it is in vitro ADME. The settings on record: probe substrate dextromethorphan. On the procedure:
The effect of the compounds of the present invention on the enzyme activity of CYP2D6 in human liver microsomes was determined by the following experimental method:
100 mM PBS buffer was formulated, which was then used to formulate 2.5 mg/ml microsome solution and 5 mM NADPH solution. The 5× concentration of the compound working solution was diluted with PBS gradient (150, 50, 15, 5, 1.5, 0.15, 0.015, 0 μM). The 5× concentration of quinidine working solution was diluted with PBS gradient (150, 50, 15, 5, 1.5, 0.15, 0.015, 0 μM). Dextromethorphan working solution was diluted with PBS to a concentration of 50 μM.
(§1) 20 μl of 2.5 mg/ml microsome solution, 20 μl of 50 μM testosterone working solution, 20 μl of MgCl2 solution and 20 μl of the compound working solution (150, 50, 15, 5, 1.5, 0.15, 0.015, 0 μM, different reaction systems for each concentration) were taken respectively and mixed well. For the positive control group, the compound was replaced with the same concentration of quinidine. The mixture together with 5 mM NADPH solution were pre-incubated at 37° C. for 5 minutes. After 5 minutes, 20 μl of NADPH were added to each well, the reaction was started and incubated for 30 minutes. All the incubated samples were present in duplicate. After 30 minutes, 250 μl of acetonitrile containing internal standard were added to all samples, mixed well, shaken at 800 rpm for 10 minutes, and then centrifuged at 3700 rpm for 10 minutes. 80 μl of the supernatant were taken and analyzed by LC-MS/MS.
The data were calculated by Graphpad Prism to obtain the IC50 values of the compounds on the metabolite site of CYP2D6.
(Liver microsomes are a subcellular fraction often used to study metabolism.)

For data set [1], the target named is T1, CYP3A4 (Homo sapiens (Human), UniProt P08684). As to the kind of experiment: Inhibition of the midazolam metabolite site of CYP3A4 in human liver microsomes. In kind it is in vitro ADME. The settings on record: probe substrate midazolam. As to the method: The effect of the compounds of the present invention on the enzyme activity of midazolam metabolite site of CYP3A4 in human liver microsomes was determined by the following experimental method:
(§2) 100 mM PBS buffer was formulated, which was then used to formulate 2.5 mg/ml microsome solution and 5 mM NADPH solution. The 5× concentration of the compound working solution was diluted with PBS gradient (150, 50, 15, 5, 1.5, 0.15, 0.015, 0 μM). The 5× concentration of ketoconazole working solution was diluted with PBS gradient (150, 50, 15, 5, 1.5, 0.15, 0.015, 0 μM). Dextromethorphan working solution was diluted with PBS to a concentration of 50 μM.
as §1, with “ketoconazole.” for “quinidine.”
The data were calculated by Graphpad Prism to obtain the IC50 values of the compounds on the midazolam metabolite site of CYP3A4.

Data set [2] concerns the target T1, CYP3A4. Nature of the data set: Inhibition of the testosterone metabolite site of CYP3A4 in human liver microsomes. The settings on record: probe substrate testosterone. In kind it is in vitro ADME. As to the method:
The effect of the compounds of the present invention on the enzyme activity of testosterone metabolite site of CYP3A4 in human liver microsomes was determined by the following experimental method:
as §2
as §1, with “ketoconazole.” for “quinidine.”
The data were calculated by Graphpad Prism to obtain the IC50 values of the compounds on the testosterone metabolite site of CYP3A4.

Sequence of human TLR8 (Q9NR97 27-1041): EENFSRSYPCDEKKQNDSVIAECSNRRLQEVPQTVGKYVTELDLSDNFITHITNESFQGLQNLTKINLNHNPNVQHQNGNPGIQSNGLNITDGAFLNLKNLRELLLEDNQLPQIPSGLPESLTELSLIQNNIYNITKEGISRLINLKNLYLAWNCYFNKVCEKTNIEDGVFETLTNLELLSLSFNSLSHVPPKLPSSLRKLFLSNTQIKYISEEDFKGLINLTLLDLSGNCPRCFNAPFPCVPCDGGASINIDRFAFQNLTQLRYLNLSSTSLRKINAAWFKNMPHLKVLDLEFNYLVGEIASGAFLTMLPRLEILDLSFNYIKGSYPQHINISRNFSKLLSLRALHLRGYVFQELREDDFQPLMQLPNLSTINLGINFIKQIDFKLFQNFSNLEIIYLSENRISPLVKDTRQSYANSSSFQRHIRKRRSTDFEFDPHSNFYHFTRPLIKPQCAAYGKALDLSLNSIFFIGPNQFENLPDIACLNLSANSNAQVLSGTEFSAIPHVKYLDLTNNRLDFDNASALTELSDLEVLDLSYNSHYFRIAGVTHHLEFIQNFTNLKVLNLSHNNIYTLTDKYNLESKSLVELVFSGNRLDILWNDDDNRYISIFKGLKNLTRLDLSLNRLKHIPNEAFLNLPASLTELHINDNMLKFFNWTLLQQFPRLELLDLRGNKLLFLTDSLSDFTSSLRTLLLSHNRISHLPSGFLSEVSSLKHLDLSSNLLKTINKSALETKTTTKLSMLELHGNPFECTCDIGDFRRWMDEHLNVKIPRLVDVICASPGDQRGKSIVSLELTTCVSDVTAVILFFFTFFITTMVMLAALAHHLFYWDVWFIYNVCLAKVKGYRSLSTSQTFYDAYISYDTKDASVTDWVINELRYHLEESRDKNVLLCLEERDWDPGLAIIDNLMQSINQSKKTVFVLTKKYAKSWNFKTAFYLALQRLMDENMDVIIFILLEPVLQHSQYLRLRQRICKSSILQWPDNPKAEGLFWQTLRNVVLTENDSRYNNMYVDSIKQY
T1 sequence (P08684 whole entry): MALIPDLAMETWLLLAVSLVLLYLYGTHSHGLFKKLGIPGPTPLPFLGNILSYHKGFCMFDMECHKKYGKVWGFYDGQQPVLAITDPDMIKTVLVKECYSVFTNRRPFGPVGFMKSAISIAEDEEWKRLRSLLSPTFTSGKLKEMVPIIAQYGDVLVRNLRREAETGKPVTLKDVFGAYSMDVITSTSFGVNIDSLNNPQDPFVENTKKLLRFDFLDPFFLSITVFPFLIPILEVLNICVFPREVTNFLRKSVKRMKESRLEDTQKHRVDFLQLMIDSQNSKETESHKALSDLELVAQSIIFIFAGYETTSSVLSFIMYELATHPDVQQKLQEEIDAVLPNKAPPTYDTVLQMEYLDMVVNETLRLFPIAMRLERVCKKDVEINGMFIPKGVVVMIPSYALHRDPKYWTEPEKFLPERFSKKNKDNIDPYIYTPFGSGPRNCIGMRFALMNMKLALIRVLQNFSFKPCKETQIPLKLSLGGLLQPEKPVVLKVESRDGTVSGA
Sequence of human TLR7 (Q9NYK1 27-1049): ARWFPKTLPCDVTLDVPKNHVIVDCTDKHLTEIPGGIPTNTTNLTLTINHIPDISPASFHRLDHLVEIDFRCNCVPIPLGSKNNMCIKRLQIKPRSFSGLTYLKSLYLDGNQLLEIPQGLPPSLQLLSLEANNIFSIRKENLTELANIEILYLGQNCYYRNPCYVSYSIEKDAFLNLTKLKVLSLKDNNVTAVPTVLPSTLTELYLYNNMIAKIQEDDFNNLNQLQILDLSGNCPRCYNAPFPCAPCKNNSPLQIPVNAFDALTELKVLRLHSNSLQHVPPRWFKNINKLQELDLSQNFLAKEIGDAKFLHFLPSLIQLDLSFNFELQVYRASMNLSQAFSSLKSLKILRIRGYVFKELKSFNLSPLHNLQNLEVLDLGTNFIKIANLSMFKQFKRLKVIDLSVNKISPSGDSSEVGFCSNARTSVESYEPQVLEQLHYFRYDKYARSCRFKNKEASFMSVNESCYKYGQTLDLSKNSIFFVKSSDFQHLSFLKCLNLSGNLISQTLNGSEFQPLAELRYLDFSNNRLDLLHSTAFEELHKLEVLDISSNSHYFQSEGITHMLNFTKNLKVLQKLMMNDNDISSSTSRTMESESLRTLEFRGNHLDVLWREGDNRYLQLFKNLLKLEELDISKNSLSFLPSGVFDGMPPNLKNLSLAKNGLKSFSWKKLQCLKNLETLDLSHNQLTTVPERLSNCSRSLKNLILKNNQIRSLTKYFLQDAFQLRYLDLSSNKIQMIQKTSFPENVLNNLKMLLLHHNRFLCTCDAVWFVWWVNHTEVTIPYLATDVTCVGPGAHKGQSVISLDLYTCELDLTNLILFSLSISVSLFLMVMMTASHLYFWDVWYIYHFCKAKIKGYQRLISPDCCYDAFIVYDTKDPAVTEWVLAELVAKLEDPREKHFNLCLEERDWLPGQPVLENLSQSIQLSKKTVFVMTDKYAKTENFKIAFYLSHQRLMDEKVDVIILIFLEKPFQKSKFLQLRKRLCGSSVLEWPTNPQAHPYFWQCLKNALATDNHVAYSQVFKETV
Sequence of CYP2D6 (P10635 whole entry): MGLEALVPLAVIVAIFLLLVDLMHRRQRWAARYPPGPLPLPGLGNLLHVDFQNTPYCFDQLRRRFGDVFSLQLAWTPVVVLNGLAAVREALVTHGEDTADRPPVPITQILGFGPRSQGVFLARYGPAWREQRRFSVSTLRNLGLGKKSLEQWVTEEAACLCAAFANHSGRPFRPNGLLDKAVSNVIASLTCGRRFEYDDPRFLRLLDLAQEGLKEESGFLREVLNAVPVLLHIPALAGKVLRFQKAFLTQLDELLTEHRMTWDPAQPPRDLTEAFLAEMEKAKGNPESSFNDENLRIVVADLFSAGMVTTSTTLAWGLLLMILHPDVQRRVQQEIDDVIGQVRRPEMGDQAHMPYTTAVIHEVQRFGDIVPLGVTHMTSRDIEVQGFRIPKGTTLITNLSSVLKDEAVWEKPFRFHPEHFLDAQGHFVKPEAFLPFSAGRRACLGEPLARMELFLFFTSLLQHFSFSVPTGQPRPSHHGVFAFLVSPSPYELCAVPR

As usually defined, the Emax is the maximal effect, on the per cent scale that the assay sets. The term EC50 denotes the concentration giving half of the maximal effect. As a reminder, the IC50 is the point on the concentration scale where inhibition reaches its midpoint. Take `CCCCOc1nc(N)c2cnn(Cc3ccc(CN4CCCC4)cc3)c2n1` [Example 1, 6-Butoxy-1-(4-(pyrrolidin-1-ylmethyl)benzyl)-1H-pyrazolo[3,4-d]pyrimidin-4-amine]: the Emax on human TLR7 is 100%. Also, at human TLR8, the maximal response (Emax) stood at 8% and the EC50 was > 30 µM. In the data set with PBMC, the “MEC to stimulate the secretion of IFN-α from PBMC” value is 6 nM. In addition, the IC50 on CYP2D6 is > 30 µM.

With `CCCCOc1nc(N)c2cnn(Cc3cccc(CN4CCC4)c3)c2n1` [Example 5, 1-(3-(Azetidin-1-ylmethyl)benzyl)-6-butoxy-1H-pyrazolo[3,4-d]pyrimidin-4-amine], the “MEC to stimulate the secretion of IFN-α from PBMC” value in the data set with PBMC is given as 41 nM.

On to `CCCCOc1nc(N)c2cnn(Cc3cccc(CN4CCCCC4)c3)c2n1` [Example 6, 6-Butoxy-1-(3-(piperidin-1-ylmethyl)benzyl)-1H-pyrazolo[3,4-d]pyrimidin-4-amine], for which the values for the Emax at human TLR7 and on human TLR8 were 91% and 35%, respectively. The results for the EC50 on human TLR7 and on human TLR8 were 0.233 µM and > 6 µM, respectively. Further, the IC50 came to 10 µM on CYP3A4 [1], 10 µM on CYP2D6 and 3 µM at CYP3A4 [2].

For `COCC(C)Oc1nc(N)c2cnn(Cc3ccc(CN4CCCC4)cc3)c2n1` (stereo not shown) [Example 8, 6-((1-Methoxypropan-2-yl)oxy)-1-(4-(pyrrolidin-1-ylmethyl)benzyl)-1H-pyrazolo[3,4-d]pyrimidin-4-amine], the results for the maximal response (Emax) on human TLR7 and at human TLR8 were 104% and 2%, respectively. In addition, the EC50 is 0.217 µM at human TLR7 and > 30 µM at human TLR8.

At human TLR7, `CCCCOc1nc(N)c2cnn(Cc3ccc(CN4CCCC4)c(F)c3)c2n1` [Example 9, 6-Butoxy-1-(3-fluoro-4-(pyrrolidin-1-ylmethyl)benzyl)-1H-pyrazolo[3,4-d]pyrimidin-4-amine] returned an Emax of 96% and an EC50 of 0.128 µM.

Take `CCCCNc1nc(N)c2cnn(Cc3ccc(CN4CCCC4)cc3)c2n1` [Example 10, N^6-Butyl-1-(4-(pyrrolidin-1-ylmethyl)benzyl)-1H-pyrazolo[3,4-d]pyrimidine-4,6-diamine]: the Emax at human TLR7 turned out to be 79%; at human TLR8 it was 0%. The EC50 on human TLR7 was 0.349 µM; on human TLR8, > 30 µM.

As to `CCCNC(=O)c1nc(N)c2cnn(Cc3ccc(CN4CCCC4)cc3)c2n1` [Example 11, 4-Amino-N-propyl-1-(4-(pyrrolidin-1-ylmethyl)benzyl)-1H-pyrazolo[3,4-d]pyrimidine-6-carboxamide], the Emax amounted to 85% at human TLR7 and 0% on human TLR8. The EC50 at human TLR7 is 0.335 µM; on human TLR8 it was > 30 µM.

With `CCCCC(=O)c1nc(N)c2cnn(Cc3ccc(CN4CCCC4)cc3)c2n1` [Example 12], the values for the Emax on human TLR7 and at human TLR8 were 78% and 5%, respectively. The EC50 at human TLR7 is 0.388 µM; at human TLR8, > 30 µM. The results for the IC50 at CYP3A4 [1], on CYP2D6 and at CYP3A4 [2] were 16 µM, 16 µM and > 30 µM, respectively.
